Source: PubChem BioAssay (NCI)
Several values for one entry are separate records, joined by “and”; a condition that tells them apart may be missing. Equal entries are not always repeated.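 1) Cells in 96-well plates. 2) Compound, 48 h, 5 concentrations. 3) Linear interpolation between surrounding doses. 4) Unreached endpoint = highest concentration. The concentration for 50% growth inhibition is given as GI50. Definition used: TGI = concentration required for complete inhibition of growth.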

Test system: MDA-MB-468 breast
Test: DTP human tumour cell line panel, 48 h

Compound	GI50	TGI [µM]
CCCCCCCCCCCCNC(=O)[C@H]1CSC(c2ccc(OC)c(F)c2)N1 (some centres not stated)	1.28 µM	2.82
C[C@H](NC(=O)CCC(F)(F)F)C(=O)N[C@@H]1C(=O)N(CCO)c2ncccc2-c2ccccc21	> 100 µM	> 100
COc1ccc(-n2nc(C)c3c2N(C)C2(C)C[C@@H]4C3(C)[C@@H]3CC4(C2)N(C)c2c(c(C)nn2-c2ccc(OC)cc2)[C@H]3C)cc1 (some centres not stated)	4.76 µM	64.8
CCCCCCN1C(=O)CN=C1Nc1ccc2cc3ccc(NC4=NCC(=O)N4CCCCCC)cc3nc2c1	1.64 µM	3.4
O=C(Nc1ccccc1)Nc1ccccc1CNc1nc(Nc2ccc(OCCN3CCCC3)cc2)ncc1Cl	1.96 µM	9.4
O=c1[nH]c(-c2ccccn2)nc2sc3c(c12)CCCCCC3	1.66 µM	> 100
O=[N+]([O-])c1cccc(-c2ncc(-c3ccc(Cl)cc3Cl)[nH]2)c1	1.63 µM	3.54
COc1cc(/C=C\c2cccnc2Nc2ccccc2)cc(OC)c1OC	6.77 µM	48.7
COc1cc(OC)c(/C=C/S(=O)(=O)Cc2ccc(OC)c(NCC(=O)O)c2)c(OC)c1	0.121 µM and 0.187 µM	> 100
Cn1cc(-c2nn3cc(-c4cccs4)nc3s2)c2cc(F)ccc21	1.44 µM	5.47
CN(C)c1ccc(Sc2ccc3nc(N)nc(N)c3c2)cc1	0.909 µM	2.65
C=CC[PH+](c1ccccc1)c1ccccc1.C=CC[PH+](c1ccccc1)c1ccccc1.[Cl][Pt][Cl]	2.64 µM	7.1
Cc1ccc(OCCCCCCNCCO)c(C)c1	8.48 µM	23.6
Cc1cnc2[nH]c(-c3ccccc3)cc(=O)c2c1	24.6 µM	> 100
COc1ncnc2c(-c3ccco3)cn(COCc3ccccc3)c12	2.4 µM	> 50
CCCCCCN(CCCCCC)CC(O)c1cccc2ccc(Cl)cc12 (configuration not stated)	3.19 µM	14.6

Compound	GI50	TGI [µM]
N#Cc1ccc(N2Cc3cc(Cl)ccc3OC3=C2C(=O)N(Cc2ccccc2)C3=O)cc1	1.22 µM	3.26
CC1(C)CC2(C)OC2C2(C1)N=NC(=Nc1ccccc1)O2 (configuration not stated)	2.47 µM	7.28
Cc1cc(N)c2ccccc2[n+]1CCCCCCCCCC[n+]1c(C)cc(N)c2ccccc21	0.0647 µM	0.245
CC(C)C[C@H](NC(=O)[C@@H](O)[C@H](N)Cc1ccccc1)C(=O)O	53.4 µM	> 100
COc1ccc(N(Cc2cc(OC)c(OC)c(OC)c2)C2OC(=O)c3ccccc32)cc1 (configuration not stated)	0.328 µM	> 100
CCNC(=O)Oc1ccc(/C(=C(\C)c2ccc(Cl)cc2)c2ccc(OCCN3CCCCC3)cc2)cc1	2.66 µM	9.5
Cn1c(COC(=O)NCCN2CCOCC2)nc2c(N3CCOCC3)nc(-c3ccccc3)nc21	1.14 µM	2.95
C=C(C)[C@@H]1CCC[C@]2(C(=O)O)CC[C@]3(C)[C@@H](CC[C@@H]4[C@@]5(C)C/C(=C/c6ccncc6)C(=O)C(C)(C)[C@@H]5CC[C@]43C)[C@@H]12	2.1 µM	5.49
COc1ccc(S(=O)(=O)NCCNc2nccc(-c3c(-c4ccccc4)nc4sccn34)n2)cc1	3.03 µM	> 100
CCN(CC)CCOc1ccc(C2=C(c3ccccc3)CCc3cc(OC)ccc32)cc1	0.138 µM	0.418
CC(=O)Nc1ccc(-n2cnc3cc(-c4ccc(OCCN5CCCCC5)cc4)ccc32)cc1	5.64 µM	14.1
C#Cc1nc(C2=C(C)C(O)/C(=N/O)C2)cs1 (configuration not stated)	17.6 µM	> 100
O=c1c2cc(F)ccc2sc2c(NCCCN3CCCC3)nc3ccccc3c12	1.17 µM	2.67
CC(C)n1nc(C#Cc2cccc(NC(=O)c3cccc(C(F)(F)F)c3)c2)c2c(N)ncnc21	4.54 µM	28.4
CCCCCCCCCCCCCCCCCC1=NC(C)(C)CN1CCO	1.59 µM	3.04
